According to article PMC4689457, “Immucillins ImmA and ImmH Are Effective and Non-toxic in the Treatment of Experimental Visceral Leishmaniasis” (PLoS Neglected Tropical Diseases, 2015):
Like-named read-outs stand apart in the source and are kept apart here.

Tests used:
IgG2a response, IL-10 = conditions: cited from earlier work; for IL-10 reduction: 1 day after complete treatment
[1] = tested on: L. (L.) infantum chagasi promastigotes; design: method as in PMID 25909893; conditions: cited from earlier work
[2] = tested on: L. (L.) amazonensis promastigotes; design: method as in PMID 25909893; conditions: cited from earlier work
L. (L.) infantum chagasi [3] = experiment: Liver parasite load (LDU) in infected BALB/c mice after chemotherapy; assay type: in vivo; conditions: 2.5 mg/kg/day ip 5 days
Experimental: (§1) Female BALB/c mice, 8 week old, were infected through the caudal vein with 10^7 amastigotes of L. (L.) infantum (strain IOC-L 3324) isolated from infected hamsters spleens. After 15 days of infection, mice (n = 5 per treatment) were injected by the intraperitoneal route (ip) with daily doses for 5 days of 2.5 mg/Kg of IA, IH, SMIH [30, 31] or the control drug Glucantime (Sanofi Aventis, batch 0929280802) (Fig 1). Immucillins were synthesized at the Ferrier Research Institute, Victoria University of Wellington, New Zealand. Uninfected and infected mice treated only with saline were included as controls for the treatment cohorts. On days 1, 15, and 30 after complete treatment, the animals were euthanized with CO2. Blood samples were collected for sera analysis and weight of spleens, livers and total body were determined. Spleens were also used for determination of cytokine expression. The parasite load was evaluated in Giemsa-stained liver smears and expressed in LDU values (Leishman Donovan units of Stauber = number of amastigotes per 1000 liver cell nuclei/mg of liver weight). The levels of urea, creatinine, glutamate pyruvate transaminase (GPT) and glutamate oxaloacetate transaminase ([…]) were assessed in plasma by standard clinical laboratory procedures using a Wiener lab Metrolab 2300 (Laborlife Análises Clínicas laboratory, Rio de Janeiro).

[4] = tested on: L. (L.) infantum chagasi infection; experiment: Survival, body and organ weights of infected treated BALB/c mice; assay type: in vivo; conditions: end of the experiment
Experimental: as §1

[5] = tested on: anti-NH36 IgG, IgG1 and IgG2a antibodies; experiment: Anti-NH36 antibody ELISA in sera of infected treated mice; assay type: in vivo, BALB/c mice
Experimental: The NH36 gene of Leishmania (L.) donovani (EMBL, Genbank and DDJB data bases, access number AY007193) with a His6tag at the C-terminal was cloned in E. coli Bl21DE3. Expression of the recombinant NH36 was obtained by induction with 0.5mM IPTG and overnight incubation at 20°C. Cultures were harvested by centrifugation and the pellets submitted to sonication during 10 minutes with cycles of 30 sec. and intervals of 55 sec. Sonicates were centrifuged and their supernatants separated for purification by column chromatography using Ni-NTA Superflow resin (Qiagen, USA). The column was eluted with a 50mM potassium phosphate, 300 mM NaCl buffer, pH: 8.0, using a 50 to 300mM imidazole gradient. The fraction containing NH36 recombinant antigen was recovered, dyalized and preserved at -80°C. Sera were collected from mice by intracardiac puncture on day 1, 15 and 30 following complete chemotherapy and assayed for the presence of anti-NH36 IgG, IgG1 and IgG2a antibodies. For that purpose the recombinant NH36 antigen (40 μg/mL) was solubilized in 0.1M sodium carbonate buffer (8.4 g of NaHCO3, 3.56 g of Na2CO3 per L; pH 9.6), and used to coat flat-bottom 96-well plates. Antibodies were detected by goat anti-mice IgG (Sigma), anti-IgG1 and anti-IgG2a peroxidase-conjugates (Southern Biotechnology Associates, Birmingham, AL, EEUU) in a 1:1000 dilution. The absorbance values at 492 ηm were compared using a 1:100 dilution of the serum samples. Results are expressed as mean values of triplicates. We used the mean average + 2 SD of serum from normal uninfected controls in order to calculate the cut-off value according to the Youden test.

splenocytes = experiment: Cytokine secretion by splenocytes of uninfected treated mice incubated in vitro with the respective drug; assay type: cell-based, BALB/c mice; conditions: splenocytes + 10 μg/ml drug
Experimental: (§2) Female BALB/c mice, 8 weeks old, were injected intraperitoneally with daily doses 2.5 mg/Kg of IA, IH, SMIH or Glucantime during five days and euthanized on day 1, 15 and 30 after complete treatment. For evaluation of the T cell response, spleens were removed and splenocytes were incubated for 24 h in vitro with the lysate of 10^6 stationary phase promastigotes of L. (L.) infantum chagasi (MHOM/BR/1974/PP75), with 25 μg/mL NH36, at 37°C and 5% CO2, during 72 h for the assay of the cytokine expression in the supernatants. Additionally, splenocytes from uninfected BALB/c mice either untreated or previously treated with IA, IH, SMIH or Glucantime were incubated in vitro with 10 μg/mL of each respective drug. For flow cytometry analysis (FACS analysis), splenocytes were incubated for 24 h with the antigens or drugs, labeled with anti-CD4FITC (clone GK1.5), anti-CD8FITC (clone 53–6.7) monoclonal antibodies (R&D systems, Inc) or with rat anti-mouse CD19-PerCP-Cy5.5 and 100,000 lymphocyte counts were acquired using a BD FACScalibur apparatus. Data was analyzed using the Flow-Jo program. The secretion of cytokines was evaluated in the supernatants of splenocytes by an ELISA assay.

[6] = tested on: CD4+, CD8+ and CD19+ lymphocytes; experiment: CD4+, CD8+ and CD19+ lymphocyte frequencies by flow cytometry in splenocytes of uninfected treated mice; assay type: cell-based, BALB/c mice; conditions: for CD8+ T cell frequencies: day 1 after treatment
Experimental: as §2

L. (L.) infantum chagasi [7] = experiment: Liver parasite load in infected CB hamsters after chemotherapy; assay type: in vivo, CB golden hamster; conditions: 2.5 mg/kg/day ip 5 days, 10 days after complete treatment; for liver parasite load: untreated 16,334 LDU
Experimental: (§3) The efficacy of immucillins was also assayed in the CB golden hamster susceptible model. Females, 8 weeks old, were infected through the intracardiac route with 2 x 10^7 amastigotes of L. (L.) infantum chagasi (strain IOC-L 3324) isolated from infected hamsters spleens. Thirty days after infection, the animals were treated with 2.5 mg/kg daily doses of Glucantime, IA, IH or SMIH, through the ip route, for five days. Ten days after complete treatment the animals were euthanized, their parasite load was determined in livers and the renal function evaluated in sera samples as described above.

[8] = Body weight and renal/hepatic markers in sera of infected treated hamsters; assay type: in vivo, CB golden hamster
Experimental: as §3

[9] = target: L. (L.) donovani recombinant NH36; design: method as in PMID 25909893; conditions: ref 29; read-out: Ki, inhibition of NH36 enzymatic activity; cited from earlier work
[10] = tested on: L. (L.) infantum chagasi amastigotes; design: method as in PMID 25909893; conditions: 10 μM; cited from earlier work
macrophage = tested on: macrophage; design: method as in PMID 25909893; conditions: 10 μM; cited from earlier work
human lymphocytes = conditions: cited from earlier work
[11] = cited from earlier work
visceral leishmaniasis = conditions: oral therapy, cited from earlier work
amastigotes = conditions: cited from earlier work
blood PNP = tested on: blood PNP; design: method as in PMID 19170524; conditions: mice; cited from earlier work
[12] = Renal and hepatic function markers in plasma of mice; assay type: in vivo, BALB/c mice
Experimental: as §1

[13] = day 1 after complete treatment, vs untreated infected controls
[14] = day 30 after complete treatment

**Q.** With 1,3,4-tiadiazolium-2 aminide as the compound, how does the IL-10 reduction (IgG2a response, IL-10) read?
**A.** 75%

**Q.** Which results are given for Nc1nc2c(CN3C[C@H](CO)[C@@H](O)C3)c[nH]c2c(=O)[nH]1 [DIG]?
**A.** concentrations inhibiting growth of promastigotes in vitro [1]: nanomolar to micromolar; concentrations inhibiting growth of promastigotes in vitro [2]: nanomolar to micromolar

**Q.** Which results are given for O=c1[nH]cnc2c(CN3C[C@H](CO)[C@@H](O)C3)c[nH]c12 [DIH]?
**A.** concentrations inhibiting growth of promastigotes in vitro [1]: nanomolar to micromolar; concentrations inhibiting growth of promastigotes in vitro [2]: nanomolar to micromolar

**Q.** Which results are given for Nc1ncnc2c([C@@H]3N[C@H](CO)[C@@H](O)[C@H]3O)c[nH]c12 [IA]?
**A.** reduction of liver parasite load (LDU) (L. (L.) infantum chagasi [3]; [13]): 45%; reduction of liver parasite load (LDU) (L. (L.) infantum chagasi [3]; [14]): 89%; survival [4]: 100%; anti-NH36 IgG1 in infected untreated controls higher than in treated mice ([5]; day 1): 69%; anti-NH36 IgG1 in infected untreated controls higher than in treated mice ([5]; day 15): 64%; anti-NH36 IgG1 in infected untreated controls higher than in treated mice ([5]; day 30): 57%; IL-10 levels (splenocytes): 113 pg/mL; CD19 B cell frequencies enhanced by previous treatment [6]: ~ 30%; CD4+ T cell frequency, higher proportion than previously untreated controls ([6]; day 1): 57%; CD8+ T cell frequencies [6]: increased; CD4+ T cell frequency, higher proportion than previously untreated controls ([6]; day 15): 21%; CD4+ T cell frequency, higher proportion than previously untreated controls ([6]; day 30): 29%; liver parasite load reduction (L. (L.) infantum chagasi [7]): 86%; liver parasite load (L. (L.) infantum chagasi [7]): 2,038 LDU; body weight ([8]; infected hamsters): increase in body weight; decrease of creatinine ([8]; infected hamsters): 66%; Ki [9]: 80 nM; concentrations inhibiting growth of promastigotes in vitro [1]: nanomolar to micromolar; concentrations inhibiting growth of promastigotes in vitro [2]: nanomolar to micromolar; inhibition of intracellular replication of amastigotes [10]: 95%; damage to macrophage viability (macrophage): no apparent damage; mutagenicity or chromosomal aberrations (human lymphocytes): did not induced mutagenicity or chromosomal aberrations; metabolic stability ([11]; mouse, rat, guinea pig and cynomolgus macaque): metabolically stable; clearance from plasma ([11]; ref 37): rapid clearance

**Q.** For O=c1[nH]cnc2c([C@@H]3N[C@H](CO)[C@@H](O)[C@H]3O)c[nH]c12 [IH], which “reduction of liver parasite load (LDU)” value (L. (L.) infantum chagasi [3]; [14]) is on record?
**A.** 85%

**Q.** What about the survival [4] of the same compound?
**A.** 100%

**Q.** What about the “CD19 B cell frequencies enhanced by previous treatment” value [6] of the same compound?
**A.** sustained

**Q.** What about the “liver parasite load reduction” value (L. (L.) infantum chagasi [7]) of the same compound?
**A.** 70%

**Q.** And the liver parasite load (L. (L.) infantum chagasi [7])?
**A.** 4,905 LDU

**Q.** And the decrease of creatinine ([8]; hamster, in vivo)?
**A.** 63%

**Q.** What about the “reduction of GOT levels” value ([8]; hamster, in vivo) of the same compound?
**A.** ~ 30%

**Q.** And the “reduction of blood urea levels” value ([8]; hamster, in vivo)?
**A.** ~ 50%

**Q.** What about the body weight ([8]; infected hamsters) of the same compound?
**A.** increase in body weight

**Q.** And the Ki [9]?
**A.** 19 nM

**Q.** What about the “concentrations inhibiting growth of promastigotes in vitro” value (shortened to “concentrations inhibiting growth”) [1] of the same compound?
**A.** nanomolar to micromolar

**Q.** What about the “concentrations inhibiting growth” value [2] of the same compound?
**A.** nanomolar to micromolar

**Q.** And the “inhibition of intracellular replication of amastigotes” value [10]?
**A.** 95%

**Q.** And the “damage to macrophage viability” value (macrophage)?
**A.** no apparent damage

**Q.** Which cure rates (visceral leishmaniasis; Brazil) does the source give for CCCCCCCCCCCCCCCCOP(=O)([O-])OCC[N+](C)(C)C [Miltefosine] here?
**A.** 50%

**Q.** What about the success rates (visceral leishmaniasis; India) of the same compound?
**A.** 94%

**Q.** And the “reduction in parasite burden” value (amastigotes; ref 46)?
**A.** 50%

**Q.** What about the “enhancement of the IgG2a response” value (IgG2a response, IL-10; ref 46) of the same compound?
**A.** 75%

**Q.** With Nc1nc(O)c2[nH]cc(CNC(CO)CO)c2n1 [SMIG] as the compound, how does the “concentrations inhibiting growth” value [1] read?
**A.** nanomolar to micromolar

**Q.** And the “concentrations inhibiting growth” value [2]?
**A.** nanomolar to micromolar

**Q.** Which results are given for O=c1[nH]cnc2c(CNC(CO)CO)c[nH]c12 [SMIH]?
**A.** reduction of liver parasite load (LDU) (L. (L.) infantum chagasi [3]; [14]): 85%; survival [4]: 100%; CD4+ T cell frequencies (in words) [6]: lower CD4+ T cell frequencies; CD19 B cell frequencies enhanced by previous treatment [6]: ~ 30%; CD8+ T cell frequencies [6]: diminished; liver parasite load reduction (L. (L.) infantum chagasi [7]): no cure; reduction of blood urea levels ([8]; infected hamsters): ~ 50%; concentrations inhibiting growth of promastigotes in vitro [1]: nanomolar to micromolar; concentrations inhibiting growth of promastigotes in vitro [2]: nanomolar to micromolar; inhibition of intracellular replication of amastigotes [10]: 95%; damage to macrophage viability (macrophage): no apparent damage; oral availability (blood PNP): orally available

**Q.** With N.N.[Cl][Pt][Cl] [cisplatin] as the compound, how does the “reduction in parasite burden” value (amastigotes; ref 30) read?
**A.** 75%

**Q.** What about the “reduction in parasite burden” value (amastigotes; ref 31) of the same compound?
**A.** 80%

**Q.** What about the “reduction in parasite burden” value (amastigotes; ref 32) of the same compound?
**A.** 50%

**Q.** And the IL-10 reduction (IgG2a response, IL-10)?
**A.** 50%

**Q.** What about the “enhancement of the IgG2a response” value (IgG2a response, IL-10; ref 30, 31) of the same compound?
**A.** 50–55%

**Q.** What does the source list for Glucantime [reference compound]?
**A.** reduction of liver parasite load (LDU) (L. (L.) infantum chagasi [3]; [13]): 46%; reduction of liver parasite load (LDU) (L. (L.) infantum chagasi [3]; [14]): 88%; survival [4]: 100%; anti-NH36 IgG2a increase vs untreated infected controls ([5]; day 1): 67%; IL-10 levels (splenocytes): 509 pg/mL; CD4+ T cell frequencies (in words) [6]: high CD4+ T cell increase (p<0.05) only on day 1; CD19 B cell frequencies enhanced by previous treatment [6]: ~ 30%; CD8+ T cell frequencies [6]: increased; renal (urea and creatinine) and hepatic (GOT and GTP) toxicity [12]: Pronounced toxicity; increase in GOT serum level ([12]; 2.5 mg/kg/day ip 5 days): 6 fold; increase in GPT serum level ([12]; 2.5 mg/kg/day ip 5 days): 9 fold; increase in creatinine serum level ([12]; 2.5 mg/kg/day ip 5 days): 9 fold; increase in urea serum level ([12]; 2.5 mg/kg/day ip 5 days): 4 fold; body weight ([8]; infected hamsters): increase in body weight; decrease of creatinine ([8]; infected hamsters): 41%; reduction of blood urea levels ([8]; infected hamsters): ~ 50%
